Results from patent US7385054B2, “Trimeric, macrocyclically substituted halo-benzene derivatives” (Schering AG, priority 2004, dated 2008).

Assays:
[1] = Osmolality of the solution at 200 mg (I + Gd)/ml; type: physicochemical; conditions: prior-art compounds as Na-salt
[2] = BuOH/H2O distribution coefficient; type: physicochemical; conditions: butanol/water
Mouse = test: LD50 (Mouse), acute toxicity; type: in vivo

| SMILES | Osmolality 200 mg (I + Gd)/ml [1] [mosmol/l] | BuOH/H2O Distribution Coefficient [2] | LD50 (Mouse) (Mouse) |
| --- | --- | --- | --- |
| CC(C(=O)NCC(=O)NCCNC(=O)c1c(I)c(C(=O)NCCNC(=O)CNC(=O)C(C)N2CCN(CC(=O)[O-])CCN(CC(=O)[O-])CCN(CC(=O)[O-])CC2)c(I)c(N(C)C(=O)C(C)N2CCN(CC(=O)[O-])CCN(CC(=O)[O-])CCN(CC(=O)[O-])CC2)c1I)N1CCN(CC(=O)[O-])CCN(CC(=O)[O-])CCN(CC(=O)[O-])CC1.[Gd+3].[Gd+3].[Gd+3] (mixture of isomers) [Example 8, 2,4,6-Triiodo-5-(2-{10-[1,4,7-tris-(carboxymethyl)-1,4,7,10-tetraazacyclododecanyl]}propionyl, Gd-complex)methylaminoisophthalic acid-N,N-bis-(3,6-diaza-4,7-dioxo-8-methyloctane-1,5-diyl-{10-[1,4,7-tris-(carboxymethyl)-1,4,7,10-tetraazacyclododecanyl, Gd-complex]})amide] | 346 | 0.00005 | >12.0 g(I + Gd)/ g(I + Gd)/kg |
| CC(C(=O)NCCNC(=O)c1c(I)c(C(=O)NCCNC(=O)C(C)N2CCN(CC(=O)[O-])CCN(CC(=O)[O-])CCN(CC(=O)[O-])CC2)c(I)c(N(C)C(=O)C(C)N2CCN(CC(=O)[O-])CCN(CC(=O)[O-])CCN(CC(=O)[O-])CC2)c1I)N1CCN(CC(=O)[O-])CCN(CC(=O)[O-])CCN(CC(=O)[O-])CC1.[Gd+3].[Gd+3].[Gd+3] (stereo not drawn) [Example 1, 2,4,6-Triiodo-5-(2-{10-[1,4,7-tris-(carboxymethyl)-1,4,7,10-tetraazacyclododecanyl]}propionyl, Gd-complex)methylaminoisophthalic acid-N,N-bis-(3-aza-5-methyl-4-oxopentane-1,5-diyl-{10-[1,4,7-tris-(carboxymethyl)-1,4,7,10-tetraazacyclododecanyl,Gd-complex]})amide] | 358 | 0.00005 | >12.0 g(I + Gd)/ g(I + Gd)/kg |
| CN(C(=O)CN1CCN(CC(=O)[O-])CCN(CC(=O)[O-])CCN(CC(=O)[O-])CC1)c1c(I)c(C(=O)NCCNC(=O)CN2CCN(CC(=O)[O-])CCN(CC(=O)[O-])CCN(CC(=O)[O-])CC2)c(I)c(C(=O)NCCNC(=O)CN2CCN(CC(=O)[O-])CCN(CC(=O)[O-])CCN(CC(=O)[O-])CC2)c1I.[Gd+3].[Gd+3].[Gd+3] [Example 5, 2,4,6-Triiodo-5-({10-[1,4,7-tris-(carboxymethyl)-1,4,7,10-tetraazacyclododecanyl]}acetyl, Gd-complex)methylaminoisophthalic acid-N,N-bis-(3-aza-4-oxopentane-1,5-diyl-{10-[1,4,7-tris-(carboxymethyl)-1,4,7,10-tetraazacyclododecanyl, Gd-complex]})amide] | 371 | 0.00006 | >12.0 g(I + Gd)/ g(I + Gd)/kg |
| O=C([O-])CN1CCN(CC(=O)[O-])CCN(CC(=O)NCCNC(=O)c2c(I)c(NC(=O)CN3CCN(CC(=O)[O-])CCN(CC(=O)[O-])CCN(CC(=O)[O-])CC3)c(I)c(C(=O)NCCNC(=O)CN3CCN(CC(=O)[O-])CCN(CC(=O)[O-])CCN(CC(=O)[O-])CC3)c2I)CCN(CC(=O)[O-])CC1.[Gd+3].[Gd+3].[Gd+3] [Example 7, 2,4,6-Triiodo-5-({10-[1,4,7-tris-(carboxymethyl)-1,4,7,10-tetraazacyclododecanyl]}acetyl, Gd-complex)aminoisophthalic acid-N,N-bis-(3-aza-4-oxopentane-1,5-diyl-{10-[1,4,7-tris-(carboxymethyl)-1,4,7,10-tetraazacyclododecanyl, Gd-complex]})amide] | 334 | 0.00005 | >12.0 g(I + Gd)/ g(I + Gd)/kg |
